The text below walks through data of ChEMBL document CHEMBL5236600, “Identification of a Novel Potent CYP4Z1 Inhibitor Attenuating the Stemness of Breast Cancer Cells through Lead Optimization” (J Med Chem, 2022).

What all share (format): ADME, cell-based
Assay [1] addresses T1, Cytochrome P450 4Z1 (Homo sapiens, UniProt Q86W10).
T1 sequence (Q86W10 whole entry): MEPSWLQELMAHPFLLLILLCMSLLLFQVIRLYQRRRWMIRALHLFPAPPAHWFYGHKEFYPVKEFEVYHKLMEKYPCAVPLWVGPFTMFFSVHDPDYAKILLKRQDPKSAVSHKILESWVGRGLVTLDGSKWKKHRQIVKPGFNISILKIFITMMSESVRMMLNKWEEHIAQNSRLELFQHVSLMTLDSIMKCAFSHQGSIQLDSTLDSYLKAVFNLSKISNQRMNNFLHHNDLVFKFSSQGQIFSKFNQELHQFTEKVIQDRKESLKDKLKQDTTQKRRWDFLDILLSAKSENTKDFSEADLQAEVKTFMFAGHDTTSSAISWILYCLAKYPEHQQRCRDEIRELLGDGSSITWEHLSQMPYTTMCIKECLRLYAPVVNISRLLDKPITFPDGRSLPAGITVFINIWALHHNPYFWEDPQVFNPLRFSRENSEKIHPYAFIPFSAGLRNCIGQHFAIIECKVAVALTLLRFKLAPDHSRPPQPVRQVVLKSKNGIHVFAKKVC
Description: Inhibition of CYP4Z1 in human HEK293T cells using Luciferin-BE as substrate at 1 uM incubated for 30 mins in presence of NADPH by luminescence based assay relative to control. To be noted: HEK-293T, 0.5 h.

The target in assay [2] is T1, Cytochrome P450 4Z1. Briefly: Inhibition of CYP4Z1 in human HEK293T cells using Luciferin-BE as substrate at 10 uM incubated for 30 mins in presence of NADPH by luminescence based assay relative to control. Particulars: HEK-293T, 0.5 h.
Assay [3] deals with T1, Cytochrome P450 4Z1. Description: Inhibition of CYP4Z1 in human HEK293T cells using Luciferin-BE as substrate incubated for 30 mins in presence of NADPH by luminescence based assay.

On to `CCc1ccc(N/C=N/O)cc1`, for which, at Cytochrome P450 4Z1 [1], the inhibition at 1 µM is 33.6%. At Cytochrome P450 4Z1 [2], the inhibition at 10 µM is 72.8%.
As for `CCOC(=O)Cc1ccc(N/C=N/O)cc1`, the concentration for half-maximal inhibition (IC50) on Cytochrome P450 4Z1 [3] turned out to be 89.7 nM. Besides, on Cytochrome P450 4Z1 [1], the inhibition at 1 µM was 80.4%. Moreover, at Cytochrome P450 4Z1 [2], the inhibition at 10 µM is 89.1%.
